# Results published in EP4782448A1, “SUBSTITUTED PYRIDOTRIAZOLE COMPOUND, AND PREPARATION METHOD THEREFOR AND USE THEREOF” (Origiant Pharmaceutical Co., Ltd., priority 2023, dated 2025).
# System: HT-29 cells
# Experiment: In vitro assay for protection of HT-29 cells from necroptosis (TNFα/Smac mimetic/Z-VAD-FMK induction, CCK8 readout)
# Assay type: cell-based
# Conditions: TNFα/Smac mimetic/Z-VAD-FMK for 24 h; inhibition of necroptosis; read-out: HT-29 (EC50)
row,SMILES,EC50
1,CC(C(=O)Nc1nc2cc(-c3ccc4c(c3)c(C(=O)N[C@@H](C)c3ccc(F)cc3)cn4C)ccn2n1)N1CC[C@H](O)C1 (stereo partly shown) [Compound 1],10 to 100 nM
2,Cn1cc(C(=O)N2CCOC[C@@H]2c2ccc(F)cc2)c2cc(-c3ccn4nc(NC(=O)C5CC5)nc4c3)ccc21 [Compound 151],< 1 nM
3,C[C@H](NC(=O)c1cn(C)c2ccc(-c3ccn4nc(NC(=O)CN5CCOCC5)nc4c3)cc12)c1ccc(Cl)cc1 [Compound 83],< 1 nM
4,COCC(=O)Nc1nc2cc(-c3ccc4c(c3)c(C(=O)N[C@H](c3ccc(F)cc3)C(F)F)cn4C)ccn2n1 [Compound 166],< 1 nM
5,C[C@H](NC(=O)c1cn(C)c2ccc(-c3ccn4nc(NC(=O)CNCC5CC5)nc4c3)cc12)c1ccc(F)cc1 [Compound 66],< 1 nM
6,Cn1cc(C(=O)Nc2nc3cc(-c4ccc5c(c4)c(C(=O)N4CCOC[C@@H]4c4ccc(F)cc4)cn5C)ccn3n2)cn1 [Compound 149],< 1 nM
7,Cn1cc(C(=O)N[C@@H](CF)c2ccc(F)cc2)c2cc(-c3ccn4nc(NC(=O)C5(C)CCC5)nc4c3)ccc21 [Compound 105],10 to 100 nM
8,C[C@H](NC(=O)c1cn(C)c2ccc(-c3ccn4nc(NC(=O)CN5CC[C@@H](O)C5)nc4c3)cc12)c1ccc(F)cc1 [Compound 12],< 1 nM
9,COCCn1cc(C(=O)N[C@@H](CF)c2ccc(F)cc2)c2cc(-c3ccn4nc(NC(=O)N5CCOCC5)nc4c3)ccc21 [Compound 214],10 to 100 nM
10,Cn1cc(C(=O)Nc2nc3cc(-c4ccc5c(c4)c(C(=O)N[C@H]4CCCc6ccc(F)cc64)cn5C)ccn3n2)cn1 [Compound 143],1 to 10 nM
11,CO[C@@H](C)C(=O)Nc1nc2cc(-c3ccc4c(c3)c(C(=O)N[C@H](c3ccc(F)cc3)C(F)F)cn4C)ccn2n1 [Compound 165],< 1 nM
12,C[C@H](NC(=O)c1cn(C)c2ccc(-c3ccn4nc(NC(=O)CN5CCC(F)(F)CC5)nc4c3)cc12)c1ccc(Cl)cc1 [Compound 86],< 1 nM
13,C[C@H](NC(=O)c1cn(C)c2ccc(-c3ccn4nc(NC(=O)CN5CCC[C@H]5C(=O)O)nc4c3)cc12)c1ccc(F)cc1 [Compound 37],1 to 10 nM
14,COCC(=O)Nc1nc2cc(-c3ccc4c(c3)c(C(=O)N[C@@H](CF)c3ccc(F)cc3)cn4C)ccn2n1 [Compound 97],< 1 nM
15,C[C@H](NC(=O)c1cn(C)c2ccc(-c3ccn4nc(NC(=O)CN5CCOCC5C(=O)O)nc4c3)cc12)c1ccc(F)cc1 (stereo partly shown) [Compound 33],1000 to 10000 nM
16,CC(c1ccc(F)cc1)n1cnc(-c2cn(C)c3ccc(-c4ccn5nc(NC(=O)c6cnn(C)c6)nc5c4)cc23)n1 (stereo not shown) [Compound 208],100 to 1000 nM
17,Cn1cc(C(=O)N[C@H]2CCCc3ccc(F)cc32)c2cc(-c3ccn4nc(NC(=O)[C@H]5CCCO5)nc4c3)ccc21 [Compound 146],10 to 100 nM
18,Cn1cc(C(=O)N[C@@H](CF)c2cccc(F)c2)c2cc(-c3ccn4nc(NC(=O)[C@H]5CCCO5)nc4c3)ccc21 [Compound 183],< 1 nM
19,Cn1cc(C(=O)Nc2nc3cc(-c4ccc5c(c4)c(C4=NC(c6ccc(F)cc6)CO4)cn5C)ccn3n2)cn1 (stereo not shown) [Compound 213],10 to 100 nM
20,C[C@H](NC(=O)c1cn(C)c2ccc(-c3ccn4nc(NC(=O)CC5CCCCC5)nc4c3)cc12)c1ccc(F)cc1 [Compound 13],< 1 nM
21,C[C@H](NC(=O)c1cn(C)c2ccc(-c3ccn4nc(NC(=O)CN5CCOC[C@@H]5CO)nc4c3)cc12)c1ccc(F)cc1 [Compound 35],< 1 nM
22,C[C@H](NC(=O)c1cn(C)c2ccc(-c3ccn4nc(NC(=O)CN5CCS(=O)(=O)CC5)nc4c3)cc12)c1ccc(F)cc1 [Compound 28],1 to 10 nM
23,Cn1cc(C(=O)Nc2nc3cc(-c4ccc5c(c4)c(C(=O)N[C@@H](CF)c4ccc(F)cc4)cn5C)ccn3n2)cn1 [Compound 111],1 to 10 nM

row,SMILES,EC50
1,Cn1nc(C(=O)N[C@@H](CF)c2ccc(F)cc2)c2cc(-c3ccn4nc(NC(=O)C5CC5)nc4c3)ccc21 [Compound 190],< 1 nM
2,C[C@H](NC(=O)c1cn(C)c2ccc(-c3ccn4nc(N5CCOCC5)nc4c3)cc12)c1ccc(F)cc1 [Compound 219],1 to 10 nM
3,Cn1cc(C(=O)N[C@H]2CCCc3cc(F)ccc32)c2cc(-c3ccn4nc(NC(=O)[C@@H]5CCCO5)nc4c3)ccc21 [Compound 139],1 to 10 nM
4,Cn1cc(C(=O)N2N=CCC2c2ccc(F)cc2)c2cc(-c3ccn4nc(NC(=O)N5CCOCC5)nc4c3)ccc21 (stereo not shown) [Compound 172],1 to 10 nM
5,C[C@H](NC(=O)c1cn(C)c2ccc(-c3ccn4nc(NC(=O)C5CC5)nc4c3)cc12)C(C)(C)C [Compound 93],100 to 1000 nM
6,Cn1cc(C(=O)N[C@@H](CF)c2ccc(F)cc2)c2cc(-c3ccn4nc(NC(=O)[C@H]5CCCO5)nc4c3)ccc21 [Compound 104],1000 to 10000 nM
7,C[C@H](NC(=O)c1cn(C)c2ccc(-c3ccn4nc(NC(=O)CN5CCOC[C@H]5C)nc4c3)cc12)c1ccc(Cl)cc1 [Compound 81],< 1 nM
8,C[C@H](NC(=O)c1cn(C)c2ccc(-c3ccn4nc(NC(=O)CN5CC(F)(F)C5)nc4c3)cc12)c1ccc(Cl)cc1 [Compound 80],< 1 nM
9,CCNCC(=O)Nc1nc2cc(-c3ccc4c(c3)c(C(=O)N[C@@H](C)c3ccc(F)cc3)cn4C)ccn2n1 [Compound 76],< 1 nM
10,Cn1cc(C(=O)Nc2nc3cc(-c4ccc5c(c4)c(C(=O)N[C@@H](CF)c4ccc(F)cc4)nn5C)ccn3n2)cn1 [Compound 187],< 1 nM
11,CC(C(=O)Nc1cn(C)c2ccc(-c3ccn4nc(NC(=O)[C@H]5CCCO5)nc4c3)cc12)c1ccc(F)cc1 (stereo partly shown) [Compound 178],100 to 1000 nM
12,C[C@H](NC(=O)c1cn(C)c2ccc(-c3ccn4nc(NC(=O)CN5CC[C@@H](F)C5)nc4c3)cc12)c1ccc(F)cc1 [Compound 20],< 1 nM
13,C[C@H](NC(=O)c1cn(C)c2ccc(-c3ccn4nc(NC(=O)N5CCOCC5)nc4c3)cc12)c1cccc(F)c1 [Compound 118],< 1 nM
14,C[C@H](NC(=O)c1cn(C)c2ccc(-c3ccn4nc(NC(=O)Cn5cccn5)nc4c3)cc12)c1ccc(F)cc1 [Compound 58],< 1 nM
15,CN1CCN(C(=O)Nc2nc3cc(-c4ccc5c(c4)c(C(=O)N[C@@H](CF)c4ccc(F)cc4)cn5C)ccn3n2)CC1 [Compound 95],< 1 nM
16,CC(=O)Nc1nc2cc(-c3ccc4c(c3)c(C(=O)N[C@H]3CCc5cc(C#N)ccc53)cn4C)ccn2n1 [Compound 132],100 to 1000 nM
17,C[C@H](NC(=O)c1cn(C)c2ccc(-c3ccn4nc(NC(=O)Cn5ccnc5)nc4c3)cc12)c1ccc(F)cc1 [Compound 48],10 to 100 nM
18,C[C@H](NC(=O)c1cn(C)c2ccc(-c3ccn4nc(NC(=O)c5cnn(C)c5)nc4c3)cc12)c1cccc(F)c1 [Compound 120],< 1 nM
19,C[C@H](NC(=O)c1cn(C)c2ccc(-c3ccn4nc(NC(=O)C5(C(=O)O)CC5)nc4c3)cc12)c1ccc(F)cc1 [Compound 31],10 to 100 nM
20,CN(C)CC(=O)Nc1nc2cc(-c3ccc4c(c3)c(C(=O)N[C@H]3CCc5ccc(F)cc53)cn4C)ccn2n1 [Compound 123],1 to 10 nM
21,C[C@H](NC(=O)c1cn(C)c2ccc(-c3ccn4nc(NC(=O)CN5C[C@H](O)CC5=O)nc4c3)cc12)c1ccc(F)cc1 [Compound 4],10 to 100 nM
22,COCCn1cc(C(=O)N[C@@H](CF)c2ccc(F)cc2)c2cc(-c3ccn4nc(NC(=O)CC#N)nc4c3)ccc21 [Compound 215],10 to 100 nM
23,CC(C(=O)Nc1nn(C)c2ccc(-c3ccn4nc(NC(=O)c5cnn(C)c5)nc4c3)cc12)c1ccc(F)cc1 (stereo not shown) [Compound 181],1000 to 10000 nM
